Results on 31 compounds are retold here after patent US20250179059A1 (The Regents of the University of California, priority 2021, published 2025).

Some results are limits rather than exact numbers.

Assay [1] concerns human SKM-1 acute myeloid leukemia cells. Kind of assay: SKM-1 antiproliferation cell-based assay (ATPlite). Summed up: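 Log-phase cells in RPMI 1640/15% FBS were seeded at 34722 cells/mL and exposed for 4 days to nine-concentration DMSO serial dilutions in triplicate. Viability was read as ATP luminescence (ATPlite 1step), and IC50 values came from variable-slope non-linear regression.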

Assay [2] addresses T1, human BRD4 bromodomain II (Homo sapiens, UniProt O60885).
T1 construct: human BRD4 bromodomain II [based on Genbank NM_058243, residues 349-460]; host or cells: E. coli
Kind of assay: Bromodomain binding assay (AlphaScreen), BRD4 BDII. The settings on record: BRD4 BDII AlphaScreen assay; read-out: BRD4 BD2 IC50. Summed up:
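Inhibition of acetyl-H4 peptide binding to human BRD4 bromodomains is measured by bead-based proximity (AlphaScreen) in pH 7.5 HEPES buffer containing 0.05% CHAPS and 0.1% BSA. Ten compound concentrations in 3-fold steps give competitive binding IC50s.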

The mark [3] stands for this setting: Homo sapiens, SKM-1, SKM-1 antiproliferation assay.

The GI50 is the concentration that inhibits growth by half. A low value points to more potent growth inhibition. A word on the IC50: it is the concentration that inhibits the measured activity by half. For `COCC(C)(C)N1CCN(c2cc(-c3cc(F)cc(-c4ccc(-n5ccn(C)c5=O)c(Cl)c4)c3O)cnc2OC)CC1` [Example 850, 1-(3-Chloro-5′-fluoro-2′-hydroxy-3′-(6-methoxy-5-(4-(1-methoxy-2-methylpropan-2-yl)piperazin-1-yl)pyridin-3-yl)-[1,1′-biphenyl]-4-yl)-3-methyl-1H-imidazol-2(3H)-one], the 50% growth inhibitory concentration (GI50) in assay [1] (setting [3]) was in the range of 0.3 to 30 nM. Besides, the IC50 in assay [2] is 1 to 10 nM.

In turn, `Cn1ccn(-c2ccc(-c3cc(F)cc(-c4cccc(N5CCCN(C(C)(C)C)CC5)c4)c3O)cc2Cl)c1=O` [Example 851, 1-(3″-(4-(tert-Butyl)-1,4-diazepan-1-yl)-3-chloro-5′-fluoro-2′-hydroxy-[1,1′:3′,1″-terphenyl]-4-yl)-3-methyl-1H-imidazol-2(3H)-one] yielded a GI50 in assay [1] (setting [3]) of 30 to 300 nM. Besides, the IC50 in assay [2] was in the range of 1 to 10 nM.

In turn, `CCc1ncc(-c2cc(F)cc(-c3ccc(-n4ccn(C)c4=O)c(Cl)c3)c2O)cc1N1CC[C@@](C)(O)C1` [Example 852, (R)-1-(3-Chloro-3′-(6-ethyl-5-(3-hydroxy-3-methylpyrrolidin-1-yl)pyridin-3-yl)-5′-fluoro-2′-hydroxy-[1,1′-biphenyl]-4-yl)-3-methyl-1H-imidazol-2(3H)-one] had a GI50 in assay [1] (setting [3]) of 0.3 to 30 nM. In addition, the IC50 in assay [2] fell in the range of 0.01 to 1 nM.

In assay [1] (setting [3]), `COc1ncc(-c2cc(F)cc(-c3ccc(-n4ccn(C)c4=O)c(Cl)c3)c2O)cc1N1CCCN(C(C)(C)C)CC1` [Example 853, 1-(3′-(5-(4-(tert-Butyl)-1,4-diazepan-1-yl)-6-methoxypyridin-3-yl)-3-chloro-5′-fluoro-2′-hydroxy-[1,1′-biphenyl]-4-yl)-3-methyl-1H-imidazol-2(3H)-one] displayed a concentration for 50% growth inhibition (GI50) of 0.3 to 30 nM. Further, the IC50 in assay [2] lay within 0.01 to 1 nM.

With `Cc1ccc(-c2cc(F)cc(-c3ccc(-n4ccn(C)c4=O)c(Cl)c3)c2O)cc1N1CC(C)(O)C2(CC2)C1` (centres unmarked) [Example 854, 1-(3-Chloro-5′-fluoro-2′-hydroxy-338-(7-hydroxy-7-methyl-5-azaspiro[2.4]heptan-5-yl)-4″-methyl-[1,1′:3′,1″-terphenyl]-4-yl)-3-methyl-1H-imidazol-2(3H)-one], the 50% growth inhibitory concentration (GI50) in assay [1] (setting [3]) lay within 30 to 300 nM. The IC50 in assay [2] fell in the range of 1 to 10 nM.

With `Cn1ccn(-c2ccc(-c3cc(F)cc(-c4cccc(-c5ccc(N)cc5)c4)c3O)cc2Cl)c1=O` [Example 855], the GI50 in assay [1] (setting [3]) was in the range of 30 to 300 nM. The IC50 in assay [2] lay in the range of 10 to 100 nM.

`COCC(C)(C)N1CCN(c2cc(-c3cc(F)cc(-c4ccc(-n5ccn(C)c5=O)c(Cl)c4)c3O)cnc2C)CC1` [Example 856] yielded a GI50 in assay [1] (setting [3]) of 0.3 to 30 nM. Further, the IC50 in assay [2] is 1 to 10 nM.

Take `Cn1ccn(-c2ccc(-c3cc(F)cc(-c4cccc(-c5ccc(O)cc5)c4)c3O)cc2Cl)c1=O` [Example 857]: the GI50 in assay [1] (setting [3]) lay in the range of 300 to 3000 nM. Further, the IC50 in assay [2] lay in the range of 10 to 100 nM.

Turning to `Cn1ccn(-c2ccc(-c3cc(F)cc(-c4cccc(-c5ccc(CO)cc5)c4)c3O)cc2Cl)c1=O` [Example 858], the GI50 in assay [1] (setting [3]) was 300 to 3000 nM. Besides, the IC50 in assay [2] was in the range of 10 to 100 nM.

In turn, `COc1c(-c2cccc(N3CCN(C(C)(C)C)CC3)c2)cc(F)cc1-c1ccc(-n2ccn(C)c2=O)c(Cl)c1` [Example 859] came in with a GI50 in assay [1] (setting [3]) of 30 to 300 nM. The IC50 in assay [2] fell in the range of 10 to 100 nM.

In turn, `COc1ncc(-c2cc(F)cc(-c3ccc(-n4ccn(C)c4=O)c(Cl)c3)c2OC(C)=O)cc1N1CCN(C(C)C)CC1` [Example 860] had a GI50 in assay [1] (setting [3]) of 0.3 to 30 nM. For the same compound, the IC50 in assay [2] is greater than 100 nM.

For `Cn1ccn(-c2ccc(-c3cc(F)cc(-c4ccnc(N5CC(C)(O)C(F)(F)C5)c4)c3O)cc2Cl)c1=O` (centres unmarked) [Example 861], the GI50 in assay [1] (setting [3]) lay within 0.3 to 30 nM. Besides, the IC50 in assay [2] was 1 to 10 nM.

Compound `Cn1ccn(-c2ccc(-c3cc(F)cc(-c4cccc(-c5cccc(N)c5)c4)c3O)cc2Cl)c1=O` [Example 862] displayed a GI50 in assay [1] (setting [3]) of 300 to 3000 nM. Further, in assay [2], the IC50 was in the range of 10 to 100 nM.

Regarding `Cn1ccn(-c2ccc(-c3cc(F)cc(-c4cccc(-c5ccc(CN)cc5)c4)c3O)cc2Cl)c1=O` [Example 863], in assay [1] (setting [3]), the GI50 was in the range of 300 to 3000 nM. For the same compound, the IC50 in assay [2] was in the range of 10 to 100 nM.

In assay [1] (setting [3]), `Cn1ccn(-c2ccc(-c3cc(F)cc(-c4cccc(-c5cccc(O)c5)c4)c3O)cc2Cl)c1=O` [Example 864] yielded a GI50 of 300 to 3000 nM. For the same compound, the IC50 in assay [2] lay within 10 to 100 nM.

In assay [1] (setting [3]), `Cn1ccn(-c2ccc(-c3cc(F)cc(-c4cccc(-c5cccc(CO)c5)c4)c3O)cc2Cl)c1=O` [Example 865] registered a GI50 of 300 to 3000 nM. Moreover, the IC50 in assay [2] was in the range of 10 to 100 nM.

For `Cn1ccn(-c2ccc(-c3cc(F)cc(-c4cccc(-c5cccc(CN)c5)c4)c3O)cc2Cl)c1=O` [Example 866], in assay [1] (setting [3]), the GI50 lay within 300 to 3000 nM. For the same compound, in assay [2], the IC50 fell in the range of 10 to 100 nM.

In assay [1] (setting [3]), `Cn1ccn(-c2ccc(-c3cc(F)cc(-c4cccc(N5CCN(C6CCOC6)CC5)c4)c3O)cc2Cl)c1=O` (centres unmarked) [Example 867] gave a GI50 of 30 to 300 nM. In addition, the IC50 in assay [2] lay in the range of 1 to 10 nM.

The compound `Cn1ccn(-c2ccc(-c3cc(F)cc(-c4cccc(N5CCN(C6CCC6)CC5)c4)c3O)cc2Cl)c1=O` [Example 868] showed a GI50 in assay [1] (setting [3]) of 0.3 to 30 nM. The IC50 in assay [2] fell in the range of 1 to 10 nM.

Take `COc1ncc(-c2cc(F)cc(-c3ccc(-n4ccn(C)c4=O)c(Cl)c3)c2O)cc1N1CCN(C2CCOC2)CC1` (centres unmarked) [Example 869]: in assay [1] (setting [3]), the GI50 lay within 0.3 to 30 nM. For the same compound, the concentration for half-maximal inhibition (IC50) in assay [2] was in the range of 1 to 10 nM.

Regarding `Cn1ccn(-c2ccc(-c3cc(F)cc(-c4ccccc4N4CCNCC4)c3O)cc2Cl)c1=O` [Example 870], the GI50 in assay [1] (setting [3]) lay within 300 to 3000 nM. Besides, the IC50 in assay [2] lay in the range of 1 to 10 nM.

`COc1ncc(-c2cc(F)cc(-c3ccc(-n4ccn(C)c4=O)c(Cl)c3)c2O)cc1N1CC(C)(C)[C@](C)(O)C1` [Example 871] displayed a GI50 in assay [1] (setting [3]) of 30 to 300 nM. For the same compound, the IC50 in assay [2] fell in the range of 1 to 10 nM.

Compound `COc1ncc(-c2cc(F)cc(-c3ccc(-n4ccn(C)c4=O)c(Cl)c3)c2O)cc1N1CC(C)(C)[C@@](C)(O)C1` [Example 872] came in with a GI50 in assay [1] (setting [3]) of 30 to 300 nM. The IC50 in assay [2] lay in the range of 0.01 to 1 nM.

As to `Cc1ncc(-c2cc(F)cc(-c3ccc(-n4ccn(C)c4=O)c(Cl)c3)c2O)cc1N1CC2(CC2)[C@](C)(O)C1` [Example 873], the GI50 in assay [1] (setting [3]) is 0.3 to 30 nM. Also, the IC50 in assay [2] was 0.01 to 1 nM.

`COc1ncc(-c2cc(F)cc(-c3ccc(-n4ccn(C)c4=O)c(Cl)c3)c2O)cc1N1CC2(CC2)[C@](C)(O)C1` [Example 875] registered a GI50 in assay [1] (setting [3]) of 0.3 to 30 nM. Moreover, the IC50 in assay [2] was in the range of 0.01 to 1 nM.

In turn, `COC(=O)Oc1c(-c2ccc(-n3ccn(C)c3=O)c(Cl)c2)cc(F)cc1-c1cnc(C)c(N2CCN(C(C)C)CC2)c1` [Example 877] returned a GI50 in assay [1] (setting [3]) of 0.3 to 30 nM. Moreover, in assay [2], the IC50 is greater than 100 nM.

For `COC(=O)OCOc1c(-c2ccc(-n3ccn(C)c3=O)c(Cl)c2)cc(F)cc1-c1cnc(C)c(N2CCN(C(C)C)CC2)c1` [Example 878], the GI50 in assay [1] (setting [3]) fell in the range of 0.3 to 30 nM. In addition, the IC50 in assay [2] was greater than 100 nM.

`COc1ncc(-c2cc(F)cc(-c3ccc(-n4ccn(C)c4=O)c(Cl)c3)c2O)cc1N1CCC2(CCN2C(C)C)C1` (centres unmarked) [Example 879] showed a GI50 in assay [1] (setting [3]) of 0.3 to 30 nM. Further, the concentration for half-maximal inhibition (IC50) in assay [2] fell in the range of 1 to 10 nM.

In turn, `COc1ncc(-c2cc(F)cc(-c3ccc(-n4ccn(C)c4=O)c(Cl)c3)c2O)cc1N1CCN(C2CCC2)CC1` [Example 880] had a 50% growth inhibitory concentration (GI50) in assay [1] (setting [3]) of 0.3 to 30 nM. Further, in assay [2], the half-maximal inhibitory concentration (IC50) is 0.01 to 1 nM.

Consider `Cn1ccn(-c2ccc(-c3cc(F)cc(-c4ccnc(N5CC(F)(F)[C@@](C)(O)C5)c4)c3O)cc2Cl)c1=O` [Example 881], for which the GI50 in assay [1] (SKM-1 antiproliferation assay) lay within 30 to 300 nM. In addition, the IC50 in assay [2] was in the range of 0.01 to 1 nM.

Regarding `Cn1ccn(-c2ccc(-c3cc(F)cc(-c4ccnc(N5CC(F)(F)[C@@](C)(O)C5)c4)c3O)cc2Cl)c1=O` [Example 882], in assay [1] (SKM-1 antiproliferation assay), the GI50 fell in the range of 0.3 to 30 nM. For the same compound, the IC50 in assay [2] lay in the range of 1 to 10 nM.
